From patent publication US9617267B2, “Compounds and methods for kinase modulation, and indications therefor” (Plexxikon Inc., priority 2009, dated 2017)
Like-named read-outs stand apart in the source and are kept apart here.

Legend:
CYP1A2 = CYP1A2 (Homo sapiens (Human), UniProt P05177); assay: CYP enzyme inhibition, fluorescent substrate (CEC)
Method: (§1) CYP (Cytochrome P450) enzymes are the major drug metabolizing enzymes present in the liver. The inhibition of CYP enzyme activity (IC50) for each of CYP1A2, CYP2C19, CYP2C9, CYP2D6, CYP3A4(BFC) and CYP3A4(BQ) is determined for compounds, where inhibition of metabolism of a known substrate leads to a decrease in the fluorescence of the metabolized product. The fluorescence of the product is monitored as a function of compound concentration.
(§2) Compounds are dissolved in dimethyl sulfoxide to a concentration of 100 mM. These are diluted 1 μL into 82 μL of acetonitrile. An 11 μL aliquot of this solution is then added to 204 μL of cofactor mix (1.3% NADPH Regeneration system Solution A, 1.04% NADPH Regeneration system Solution B from BD Biosciences, 5% acetonitrile and 0.05% dimethyl sulfoxide). These are then serially diluted 1:1 (160 μL to 160 μL co-factor mix) for a total of 10 points. A 10 μL aliquot of this final mixture is dispensed into 384 well assay plates and incubated for 10 minutes at 37° C. Enzyme and substrate mix (10 μL; 0.5 pmol CYP1A2/5 μM CEC; 1.0 pmol CYP2C9/75 μM MFC; 0.5 pmol CYP2C19/25 μM CEC; 1.5 pmol CYP2D6/1.5 μM AMMC; 1.0 pmol CYP3A4/50 μM BFC; or 1.0 pmol CYP3A4/40 μM BQ) is added to these assay plates. Assay plates are incubated at 37° C. (CYP1A2-15 min; CYP2C9-45 min; CYP2C19, 2D6 and 3A4-30 min) and read in a Tecan Safire 2 plate reader (CYP1A2, 2C19 and 3A4 409 ex/460 em; CYP2C9 and 2D6 409 ex/530 em). The signal versus compound concentration is used to determine the IC50. The enzymes and substrates for this assay are obtained from BD Biosciences.

CYP3A4(BQ) = CYP3A4(BQ) (Homo sapiens (Human), UniProt P08684); assay: CYP enzyme inhibition, fluorescent substrate BQ; details: read-out: Cyp IC50 3A4(BQ); CYP3A4, substrate BQ
Method: as §1
(§3) Compounds are dissolved in dimethyl sulfoxide to a concentration of 100 mM. These are diluted 1 μL into 82 μL of acetonitrile. […] These are then serially diluted 1:1 (160 μL to 160 μL co-factor mix) for a total of 10 points. A 10 μL aliquot of this final mixture is dispensed into 384 well assay plates and incubated for 10 minutes at 37° C. […] Assay plates are incubated at 37° C. […] The signal versus compound concentration is used to determine the IC50. The enzymes and substrates for this assay are obtained from BD Biosciences.

CYP2C19 = CYP2C19 (Homo sapiens (Human), UniProt P33261); assay: CYP enzyme inhibition, fluorescent substrate (CEC)
In short: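 Human CYP activity was followed by the fluorescence of the metabolized product of a known substrate, which falls as metabolism is inhibited. Compounds from 100 mM DMSO stocks were serially diluted 1:1 over 10 points in co-factor mix and preincubated 10 min at 37 °C. IC50 was fitted from signal versus concentration.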

CYP3A4(BFC) = CYP3A4(BFC) (Homo sapiens (Human), UniProt P08684); assay: CYP enzyme inhibition, fluorescent substrate BFC
Method: as §1, §3

CYP2D6 = CYP2D6 (Homo sapiens (Human), UniProt P10635); assay: CYP enzyme inhibition, fluorescent substrate (AMMC); type: in vitro ADME; details: read-out: Cyp IC50 2D6
Method: as §1, §2

CYP2C9 = CYP2C9 (Homo sapiens (Human), UniProt P11712); assay: CYP enzyme inhibition, fluorescent substrate (MFC)
Method: as §1, §3

c-Raf-1 = c-Raf-1 (Homo sapiens, UniProt P04049); assay: c-Raf-1 kinase activity biochemical assay (AlphaScreen, biotin-MEK1 phosphorylation)
In short: (§4)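 Biotin-MEK1 phosphorylation measured after 45 min kinase reaction at RT with 100 μM ATP final; compounds tested at 8 points from 0.1 mM DMSO stock.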

[1] = Relative solubility by turbidity threshold concentration in aqueous buffers (pH 1.5, 4.5, 6.8, 7.4); type: physicochemical; details: for turbidity threshold (L, M, H) 1.4: pH 1.4 [sic] (method: SGF pH 1.5); for turbidity threshold (L, M, H) 4.5: pH 4.5 (SIF); for turbidity threshold (L, M, H) 6.8: pH 6.8 (SIF); for turbidity threshold (L, M, H) 7.4: pH 7.4 (HEPES)
In short: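 Solubility class (high >250 μM, moderate 31.3–250 μM, low <31.3 μM) comes from the concentration where absorbance reaches a 0.01 threshold, averaged across 490/535/650 nm. Samples were compound dilutions from DMSO stock, 1 μL into 99 μL buffer at pH 1.5, 4.5, 6.8 or 7.4.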

B-Raf [2] = target: B-Raf (Homo sapiens (Human), UniProt P15056); assay: B-Raf kinase activity biochemical assay (AlphaScreen, biotin-MEK1 phosphorylation); details: B-Raf
In short: as §4

B-Raf [3] = assay: as above; details: for Biochemical activity ratio B/V600E: ratio of IC50 B-Raf / B-Raf V600E; for Biochemical activity ratio B/C: ratio of IC50 B-Raf / c-Raf-1
In short: as §4

B-Raf V600E = B-Raf V600E (Homo sapiens (Human), UniProt P15056, V600E); assay: B-Raf V600E kinase activity biochemical assay (AlphaScreen, biotin-MEK1 phosphorylation); details: for IC50: B-Raf V600E; for Biochemical activity ratio V600E/C: ratio of IC50 B-Raf V600E / c-Raf-1
In short: as §4

[4] = read-out: Cyp IC50 2C19, CYP2C19, substrate CEC
[5] = read-out: Cyp IC50 3A4(BFC), CYP3A4, substrate BFC
[6] = read-out: Cyp IC50 2C9, CYP2C9, substrate MFC
[7] = read-out: Cyp IC50 1A2, CYP1A2, substrate CEC

CYP2D6, sequence (P10635 whole entry): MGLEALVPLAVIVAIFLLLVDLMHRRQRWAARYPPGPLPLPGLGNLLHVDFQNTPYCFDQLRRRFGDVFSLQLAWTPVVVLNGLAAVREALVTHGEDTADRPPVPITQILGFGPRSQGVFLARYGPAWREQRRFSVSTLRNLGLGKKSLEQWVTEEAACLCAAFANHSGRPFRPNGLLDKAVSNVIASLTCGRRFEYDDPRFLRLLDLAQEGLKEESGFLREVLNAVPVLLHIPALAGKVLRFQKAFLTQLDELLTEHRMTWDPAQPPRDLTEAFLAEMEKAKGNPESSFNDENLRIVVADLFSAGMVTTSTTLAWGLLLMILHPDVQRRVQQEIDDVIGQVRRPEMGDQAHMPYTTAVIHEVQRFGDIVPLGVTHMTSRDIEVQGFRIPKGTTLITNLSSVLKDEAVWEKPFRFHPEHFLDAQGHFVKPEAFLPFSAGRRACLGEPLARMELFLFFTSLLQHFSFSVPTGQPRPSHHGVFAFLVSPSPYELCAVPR
B-Raf (Homo sapiens (Human), UniProt P15056), sequence (P15056 whole entry): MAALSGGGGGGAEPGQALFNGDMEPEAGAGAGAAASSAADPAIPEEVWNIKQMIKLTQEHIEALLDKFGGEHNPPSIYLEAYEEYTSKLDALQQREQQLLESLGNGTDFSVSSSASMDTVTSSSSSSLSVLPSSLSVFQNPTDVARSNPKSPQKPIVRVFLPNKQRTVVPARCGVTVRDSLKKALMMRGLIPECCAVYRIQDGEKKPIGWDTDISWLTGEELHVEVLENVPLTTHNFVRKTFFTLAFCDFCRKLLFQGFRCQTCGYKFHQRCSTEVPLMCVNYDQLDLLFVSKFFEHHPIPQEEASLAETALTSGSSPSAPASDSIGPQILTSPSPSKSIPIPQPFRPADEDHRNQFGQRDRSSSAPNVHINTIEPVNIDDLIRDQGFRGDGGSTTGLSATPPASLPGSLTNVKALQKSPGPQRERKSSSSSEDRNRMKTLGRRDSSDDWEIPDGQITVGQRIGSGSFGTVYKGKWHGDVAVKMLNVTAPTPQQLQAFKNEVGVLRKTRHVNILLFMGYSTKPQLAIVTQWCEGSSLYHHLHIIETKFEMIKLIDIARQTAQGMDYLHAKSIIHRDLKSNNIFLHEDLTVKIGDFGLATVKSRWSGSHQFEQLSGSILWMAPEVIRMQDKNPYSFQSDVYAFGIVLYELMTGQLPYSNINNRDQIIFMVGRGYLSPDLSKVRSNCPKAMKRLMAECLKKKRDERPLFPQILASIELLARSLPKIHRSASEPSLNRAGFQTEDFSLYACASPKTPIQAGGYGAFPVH
CYP1A2, sequence (P05177 whole entry): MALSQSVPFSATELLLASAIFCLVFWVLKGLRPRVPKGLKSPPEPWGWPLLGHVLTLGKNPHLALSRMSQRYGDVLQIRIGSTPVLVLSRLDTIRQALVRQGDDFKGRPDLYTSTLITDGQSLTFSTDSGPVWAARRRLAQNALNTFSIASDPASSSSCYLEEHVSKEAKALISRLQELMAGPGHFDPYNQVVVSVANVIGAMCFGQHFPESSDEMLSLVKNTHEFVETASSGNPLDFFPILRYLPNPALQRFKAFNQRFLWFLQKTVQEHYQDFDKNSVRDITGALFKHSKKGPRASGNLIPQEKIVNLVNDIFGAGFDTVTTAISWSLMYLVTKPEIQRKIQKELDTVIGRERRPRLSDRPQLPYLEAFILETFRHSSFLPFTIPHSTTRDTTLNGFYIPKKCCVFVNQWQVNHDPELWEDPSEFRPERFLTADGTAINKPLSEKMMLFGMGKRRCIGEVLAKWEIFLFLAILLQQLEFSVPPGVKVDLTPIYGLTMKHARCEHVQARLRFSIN
CYP2C9, sequence (P11712 whole entry): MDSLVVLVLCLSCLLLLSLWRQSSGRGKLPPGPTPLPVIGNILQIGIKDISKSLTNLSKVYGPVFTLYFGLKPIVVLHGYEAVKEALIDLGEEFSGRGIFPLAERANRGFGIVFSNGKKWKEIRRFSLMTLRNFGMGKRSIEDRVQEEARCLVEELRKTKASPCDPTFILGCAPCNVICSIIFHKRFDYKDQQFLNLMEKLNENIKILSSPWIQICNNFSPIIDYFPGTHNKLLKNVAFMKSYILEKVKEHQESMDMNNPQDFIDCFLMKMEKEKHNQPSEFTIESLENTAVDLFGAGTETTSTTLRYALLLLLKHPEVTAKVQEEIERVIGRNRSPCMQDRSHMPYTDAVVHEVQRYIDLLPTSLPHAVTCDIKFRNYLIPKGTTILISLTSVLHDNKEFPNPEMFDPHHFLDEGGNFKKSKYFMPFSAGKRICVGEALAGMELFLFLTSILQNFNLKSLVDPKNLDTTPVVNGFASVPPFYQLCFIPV
B-Raf V600E, sequence (P15056 whole entry V600E): as the sequence (P15056 whole entry) above, with V600E counted along it
CYP2C19, sequence (P33261 whole entry): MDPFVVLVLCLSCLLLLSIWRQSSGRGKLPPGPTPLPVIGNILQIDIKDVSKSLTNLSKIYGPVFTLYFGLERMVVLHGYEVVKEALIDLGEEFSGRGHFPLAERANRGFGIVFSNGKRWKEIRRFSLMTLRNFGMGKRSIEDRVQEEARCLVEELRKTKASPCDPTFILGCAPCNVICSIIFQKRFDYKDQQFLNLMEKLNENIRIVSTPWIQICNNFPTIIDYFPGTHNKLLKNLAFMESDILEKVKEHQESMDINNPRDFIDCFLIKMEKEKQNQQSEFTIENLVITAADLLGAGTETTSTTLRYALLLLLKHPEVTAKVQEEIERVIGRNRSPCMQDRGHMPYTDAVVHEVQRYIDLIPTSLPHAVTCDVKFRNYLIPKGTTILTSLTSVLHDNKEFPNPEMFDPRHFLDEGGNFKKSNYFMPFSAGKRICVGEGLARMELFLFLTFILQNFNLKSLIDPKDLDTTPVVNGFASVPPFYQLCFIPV
CYP3A4(BFC), sequence (P08684 whole entry): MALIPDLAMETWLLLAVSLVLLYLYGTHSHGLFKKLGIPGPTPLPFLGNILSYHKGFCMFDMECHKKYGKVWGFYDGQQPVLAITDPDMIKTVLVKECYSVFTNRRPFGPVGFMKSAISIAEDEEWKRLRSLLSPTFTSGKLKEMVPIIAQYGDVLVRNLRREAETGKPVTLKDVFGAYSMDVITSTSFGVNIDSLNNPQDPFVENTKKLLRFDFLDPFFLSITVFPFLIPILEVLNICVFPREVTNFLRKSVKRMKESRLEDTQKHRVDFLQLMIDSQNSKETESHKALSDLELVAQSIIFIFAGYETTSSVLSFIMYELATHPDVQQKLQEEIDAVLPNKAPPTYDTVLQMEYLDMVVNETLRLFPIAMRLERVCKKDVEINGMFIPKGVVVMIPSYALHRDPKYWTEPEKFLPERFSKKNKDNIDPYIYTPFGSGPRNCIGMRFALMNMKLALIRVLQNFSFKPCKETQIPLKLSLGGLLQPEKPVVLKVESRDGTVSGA
CYP3A4(BQ), sequence (P08684 whole entry): as above
c-Raf-1, sequence (P04049 whole entry, looked up): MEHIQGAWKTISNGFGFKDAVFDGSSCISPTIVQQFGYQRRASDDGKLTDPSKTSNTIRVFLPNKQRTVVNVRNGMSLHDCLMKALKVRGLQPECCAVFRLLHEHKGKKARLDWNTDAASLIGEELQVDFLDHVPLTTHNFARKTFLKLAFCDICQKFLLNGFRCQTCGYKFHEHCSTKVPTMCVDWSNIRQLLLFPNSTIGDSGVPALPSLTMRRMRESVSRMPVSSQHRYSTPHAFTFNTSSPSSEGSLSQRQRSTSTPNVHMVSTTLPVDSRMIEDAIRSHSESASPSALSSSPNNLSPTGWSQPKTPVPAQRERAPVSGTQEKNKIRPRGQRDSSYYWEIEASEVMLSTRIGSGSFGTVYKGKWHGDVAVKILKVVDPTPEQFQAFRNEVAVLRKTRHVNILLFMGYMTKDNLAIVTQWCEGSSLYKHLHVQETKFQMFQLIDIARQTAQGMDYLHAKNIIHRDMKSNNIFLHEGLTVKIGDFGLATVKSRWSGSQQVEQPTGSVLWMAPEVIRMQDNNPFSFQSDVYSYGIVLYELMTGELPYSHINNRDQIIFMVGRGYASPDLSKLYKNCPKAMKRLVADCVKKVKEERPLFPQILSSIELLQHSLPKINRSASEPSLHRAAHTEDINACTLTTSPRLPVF

IC50 (CYP3A4(BQ)) [µM]	Compound	IC50 (CYP1A2; human, 15 min) [µM]	IC50 (CYP2C19; [4]) [µM]	IC50 (CYP3A4(BFC); [5]) [µM]	IC50 (CYP2D6) [µM]	IC50 (CYP2C9; [6]) [µM]	IC50 (c-Raf-1) [µM]	turbidity threshold (L, M, H) 1.4 [1]	turbidity threshold (L, M, H) 4.5 [1]	turbidity threshold (L, M, H) 6.8 [1]	turbidity threshold (L, M, H) 7.4 [1]	IC50 (B-Raf [2]) [µM]	Biochemical activity ratio B/V600E (B-Raf [3])	Biochemical activity ratio B/C (B-Raf [3])	IC50 (B-Raf V600E) [µM]	Biochemical activity ratio V600E/C (B-Raf V600E)	IC50 (CYP2C9) [µM]	IC50 (CYP1A2; [7]) [µM]	IC50 (CYP2C19) [µM]	IC50 (CYP3A4(BFC)) [µM]
> 10	COCCNc1ncnc2[nH]cc(C(=O)c3c(F)ccc(NS(=O)(=O)c4ccccc4F)c3F)c12 [P-1150, N-{2,4-Difluoro-3-[4-(2-methoxy-ethylamino)-7H-pyrrolo[2,3-d]pyrimidine-5-carbonyl]-phenyl}-2-fluoro-benzenesulfonamide]	> 10	> 10	> 10	> 10	> 10														
> 10	CCn1cc(Nc2ncnc3[nH]cc(C(=O)c4c(F)ccc(NS(=O)(=O)c5ccccc5F)c4F)c23)cn1 [P-1153, N-{3-[4-(1-Ethyl-1H-pyrazol-4-ylamino)-7H-pyrrolo[2,3-d]pyrimidine-5-carbonyl]-2,4-difluoro-phenyl}-2-fluoro-benzenesulfonamide]	> 10	> 10	> 10	> 10	> 10														
> 10	CCCS(=O)(=O)Nc1ccc(F)c(C(=O)c2c[nH]c3ncnc(NCc4ccccc4)c23)c1F [P-1074, Propane-1-sulfonic acid [3-(4-benzylamino-7H-pyrrolo[2,3-d]pyrimidine-5-carbonyl)-2,4-difluoro-phenyl]-amide]	> 10	> 10	> 10	> 10	> 10														
	CC(C)COc1ncnc2[nH]cc(C(=O)c3c(F)ccc(NS(=O)(=O)c4ccc(C(F)(F)F)cc4)c3F)c12 [P-1028, N-[2,4-Difluoro-3-(4-isobutoxy-7H-pyrrolo[2,3-d]pyrimidine-5-carbonyl)-phenyl]-4-trifluoromethyl-benzenesulfonamide]	> 10	> 10	> 10	> 10		< 0.1	M (moderate solubility if the threshold concentration is 31.3 μM to 250 μM)	L (low solubility if the threshold concentration is <31.3 μM)	L (low solubility if the threshold concentration is <31.3 μM)	M (moderate solubility if the threshold concentration is 31.3 μM to 250 μM)	> 0.1	0.1-10	>10	> 0.1	>10	5 to 10			
	O=C(c1c(F)ccc(NS(=O)(=O)c2ccc(C(F)(F)F)cc2)c1F)c1c[nH]c2ncnc(Cl)c12 [P-1016, N-[3-(4-Chloro-7H-pyrrolo[2,3-d]pyrimidine-5-carbonyl)-2,4-difluoro-phenyl]-4-trifluoromethyl-benzenesulfonamide]		> 10	> 10	> 10	> 10	< 0.1	L (low solubility if the threshold concentration is <31.3 μM)		L (low solubility if the threshold concentration is <31.3 μM)	H (high solubility if the threshold concentration is >250 μm)	> 0.1	0.1-10	>10	> 0.1	>10		> 10		
	Cc1cc(C)cc(S(=O)(=O)Nc2ccc(F)c(C(=O)c3c[nH]c4ncnc(C)c34)c2F)c1 [P-1027, N-[2,4-Difluoro-3-(4-methyl-7H-pyrrolo[2,3-d]pyrimidine-5-carbonyl)-phenyl]-3,5-dimethyl-benzenesulfonamide]	> 10	> 10	> 10	> 10	> 10	< 0.1		L (low solubility if the threshold concentration is <31.3 μM)	M (moderate solubility if the threshold concentration is 31.3 μM to 250 μM)		> 0.1	0.1-10	>10	> 0.1	0.1-10				
	CCCc1ccc(S(=O)(=O)Nc2ccc(F)c(C(=O)c3c[nH]c4ncnc(O)c34)c2F)cc1 [P-1030, N-[2,4-Difluoro-3-(4-hydroxy-7H-pyrrolo[2,3-d]pyrimidine-5-carbonyl)-phenyl]-4-propyl-benzenesulfonamide]		> 10	> 10	> 10	> 10	< 0.1		M (moderate solubility if the threshold concentration is 31.3 μM to 250 μM)		M (moderate solubility if the threshold concentration is 31.3 μM to 250 μM)	> 0.1	<0.1	0.1-10	> 0.1	>10		> 10		
	O=C(c1c(F)ccc(NS(=O)(=O)c2ccc(C(F)(F)F)cc2)c1F)c1c[nH]c2ncnc(NC3CCCC3)c12 [P-1035, N-[3-(4-Cyclopentylamino-7H-pyrrolo[2,3-d]pyrimidine-5-carbonyl)-2,4-difluoro-phenyl]-4-trifluoromethyl-benzenesulfonamide]	> 10			> 10	> 10	< 0.1	L (low solubility if the threshold concentration is <31.3 μM)	L (low solubility if the threshold concentration is <31.3 μM)	L (low solubility if the threshold concentration is <31.3 μM)	L (low solubility if the threshold concentration is <31.3 μM)	< 0.1	0.1-10	>10	< 0.1	>10			5 to 10	5 to 10
	CC(C)CNc1ncnc2[nH]cc(C(=O)c3c(F)ccc(NS(=O)(=O)c4ccc(C(F)(F)F)cc4)c3F)c12 [P-1020, N-[2,4-Difluoro-3-(4-isobutylamino-7H-pyrrolo[2,3-d]pyrimidine-5-carbonyl)-phenyl]-4-trifluoromethyl-benzenesulfonamide]	> 10	> 10	> 10	> 10	> 10	< 0.1	H (high solubility if the threshold concentration is >250 μm)			H (high solubility if the threshold concentration is >250 μm)	< 0.1	0.1-10	>10	> 0.1	>10				
